Results: patent US20250052985A1, “SYSTEM AND METHOD FOR QUANTITATIVE PHASE IMAGING FOR MULTI-PARAMETRIC SCREENING OF TUMOR THERAPY RESPONSE” (UNIVERSITY OF UTAH RESEARCH FOUNDATION, priority 2023, published 2025)
“And” between values parts separate entries of the source, which are not always exact repeats. Identical values can stand only once. Like-named read-outs stand apart in the source and are kept apart here.

Experiments:
BT-474 cells = assay: cells; settings: for Max Asymptote / Min Asymptote: BT-474, 4-parameter Hill fit of mean SGR vs concentration, one line per replicate; for Hill Slope: BT-474, Hill fit; for EC50: Homo sapiens
Method in brief: (§1)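 EC50 comes from 4-parameter Hill fits of average specific growth rate (mass accumulation) versus dose; a response is called only when the fit beats a flat line by F-test at p<0.01. Growth was tracked by differential phase contrast QPI for 24 or 72 h post-equilibration, followed by CTG ATP readout.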

MCF-7 cells [1] = assay: cells; settings: for Hill Slope: MCF-7, Hill fit; for EC50: Homo sapiens
Method in brief: as §1

MDA-MB-231 cells [2] = assay: Quantitative phase imaging (QPI) growth response, MDA-MB-231; type: cell-based; set-up: DoR QPI: scale not given here; ToR 20 μM: unit not given here; settings: for Max Asymptote / Min Asymptote: MDA-MB-231, 4-parameter Hill fit of mean SGR vs concentration, one line per replicate; for EC50: Homo sapiens, MDA-MB-231, MDA-MB-231 cell line
Method in brief: as §1

MCF-7 cells [3] = assay: CellTiter-Glo (CTG) ATP viability assay, MCF-7; type: cell-based; settings: for EC50: Homo sapiens
Method in brief: (§2)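 Cell viability was read as ATP content by CellTiter-Glo luminescence after replacing media with reagent, shaking 20 min and resting 10 min. Signal was normalized to solvent control, and a 4-parameter Hill fit to the dose response gave EC50 and depth of response.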

MDA-MB-231 cells [4] = assay: CellTiter-Glo (CTG) ATP viability assay, MDA-MB-231; type: cell-based; settings: for Min Asymptote: MDA-MB-231, Hill fit of luminescence normalized to solvent control, one line per replicate; for EC50: Homo sapiens
Method in brief: as §2

[5] = 24 h QPI, MCF-7, 4-parameter Hill fit of mean SGR vs concentration, one line per replicate

- EC50 (BT-474 cells; BT-474, 24 h, read-out: log10(EC50), 24 h QPI, BT-474, Hill fit (converted), EC50 in μM per Table 1): 48.8 µM
- EC50 (BT-474 cells; BT-474, read-out: EC50, QPI, BT-474 cell line, QPI growth rate): 14.9 µM
- EC50 (MCF-7 cells [1]; MCF7, 24 h, read-out: log10(EC50), 24 h QPI, MCF-7, Hill fit (converted), EC50 in μM per Table 1): 0.00154 µM
- EC50 (MCF-7 cells [1]; MCF7, read-out: EC50, QPI, MCF-7 cell line, QPI growth rate): 0.3 µM
- EC50 (MDA-MB-231 cells [2]; EC50 of the standard deviation, read-out: EC50, SD (converted)): 14900 nM
- EC50 (MDA-MB-231 cells [2]; QPI growth rate, read-out: EC50, QPI): 400 nM
- log10(EC50) (MCF-7 cells [3]; 72 h CTG, MCF-7, Hill fit): 2.689
- EC50 (MCF-7 cells [3]; MCF7, 72 h, 72 h CTG, MCF-7, Hill fit, read-out: log10(EC50) (converted)): 2.15 nM
- EC50 (MCF-7 cells [3]; MCF7, MCF-7 cell line, CellTiter-Glo, read-out: EC50, CTG (converted)): 1600 nM
- EC50 (MDA-MB-231 cells [4]; MDA-MB-231, 24 h, 24 h CTG, MDA-MB-231, Hill fit, read-out: log10(EC50) (converted)): 1830 nM
- EC50 (MDA-MB-231 cells [4]; MDA-MB-231, MDA-MB-231 cell line, CellTiter-Glo, read-out: EC50, CTG): 3000 nM
SMILES: CC[C@]1(O)C[C@@H]2CN(CCc3c([nH]c4ccccc34)[C@@](C(=O)OC)(c3cc4c(cc3OC)N(C)[C@H]3[C@@](O)(C(=O)OC)[C@H](OC(C)=O)[C@]5(CC)C=CCN6CC[C@]43[C@@H]65)C2)C1 [Vinblastine]
- Max Asymptote (BT-474 cells; 24 h QPI): 0.007582
- Min Asymptote (BT-474 cells; 24 h QPI): −0.004812
- Hill Slope (BT-474 cells; 24 h QPI): 0.4052
- Max Asymptote (BT-474 cells; 72 h QPI): −0.001678 and −0.002248
- Min Asymptote (BT-474 cells; 72 h QPI): 0.002895 and 0.003538
- Hill Slope (BT-474 cells; 72 h QPI): 2.4178 and 1.3815
- growth rate and heterogeneity over time (BT-474 cells; BT-474, 0.0016 μM): decrease in growth rate at constant heterogeneity that is greater than the control
- growth rate and heterogeneity over time (BT-474 cells; BT-474, 0.016 μM): decreased growth rate and increased heterogeneity
- growth rate and heterogeneity over time (BT-474 cells; BT-474, 0.4 μM): reduced growth rate at the same level of heterogeneity as the control
- average growth rate over time (BT-474 cells; BT-474, 20 μM): slowly decreases over 12-60 h of treatment
- growth rate and heterogeneity over time (BT-474 cells; BT-474, 20 μM): decreases, while the heterogeneity for both populations increases
- change of population spread (SD) of SGR (BT-474 cells; BT-474, 20 μM, with significant decrease in mean response): no significant change to the spread
- response of growth rate and heterogeneity to treatment (BT-474 cells; BT-474, FIG. 5E, 22, 23): both reduced growth rate and slightly increased heterogeneity
- growth rate and heterogeneity as concentration increases (BT-474 cells; BT-474, FIG. 22): decrease in growth rate as concentration increases while heterogeneity remains constant
- DoR QPI (BT-474 cells; BT-474 cell line, depth of response, QPI): 2.8
- ToR 20 μM (BT-474 cells; BT-474 cell line, time of response at 20 μM): 4.9
- Max Asymptote (MCF-7 cells [1]; [5]): 0.01958
- Min Asymptote (MCF-7 cells [1]; [5]): 0.005796
- Hill Slope (MCF-7 cells [1]; 24 h QPI): 3.2016
- Min Asymptote (MCF-7 cells [1]; 72 h QPI, MCF-7, 4-parameter Hill fit of mean SGR vs concentration, one line per replicate): 0.01979 and 0.02842 and 0.02817
- Hill Slope (MCF-7 cells [1]; 72 h QPI): 0.3759 and 0.3808 and 0.4308
- DoR QPI (MCF-7 cells [1]; MCF-7 cell line, depth of response, QPI): 0.4
- ToR 20 μM (MCF-7 cells [1]; MCF-7 cell line, time of response at 20 μM): −3.0
- Max Asymptote (MDA-MB-231 cells [2]; 24 h QPI): 0.02419 and 0.02824 and 0.03124
- Min Asymptote (MDA-MB-231 cells [2]; 24 h QPI): 0.0149 and 0.01503 and 0.01517
- Max Asymptote (MDA-MB-231 cells [2]; 72 h QPI): 0.007654 and 0.0105 and 0.007938
- Min Asymptote (MDA-MB-231 cells [2]; 72 h QPI): 0.03001 and 0.01871 and 0.03086
- growth rate and heterogeneity over time (MDA-MB-231 cells [2]; MDA-MB-231): decrease in growth rate and heterogeneity simultaneously
- growth rate and heterogeneity over time (MDA-MB-231 cells [2]; MDA-MB-231, 0.4 μM): decrease in growth rate and heterogeneity simultaneously
- growth rate and heterogeneity over time (MDA-MB-231 cells [2]; MDA-MB-231, 2 μM): decrease in growth rate and heterogeneity simultaneously
- growth rate and heterogeneity over time (MDA-MB-231 cells [2]; MDA-MB-231, 20 μM): decrease in growth rate and heterogeneity simultaneously
- growth rate and heterogeneity as concentration increases (MDA-MB-231 cells [2]; MDA-MB-231, FIG. 22): decrease in growth rate and heterogencity simultaneously
- growth rate and heterogeneity over time (MDA-MB-231 cells [2]; MDA-MB-231, lowest concentrations, FIG. 21 G-H): growth rate decreases over time with little change in heterogeneity
- DoR QPI (MDA-MB-231 cells [2]; MDA-MB-231 cell line, depth of response, QPI): 0.8
- ToR 20 μM (MDA-MB-231 cells [2]; MDA-MB-231 cell line, time of response at 20 μM): 4.7
- Hill Slope (MCF-7 cells [3]; 72 h CTG, MCF-7, Hill fit): 0.2572 and 0.2217
- Min Asymptote (MCF-7 cells [3]; 72 h CTG, MCF-7, Hill fit of luminescence normalized to solvent control, one line per replicate): 4.32E−11 (2×) and 1.18E−11
- DoR CTG (MCF-7 cells [3]; MCF-7 cell line, depth of response, CellTiter-Glo): 0.8
- Hill Slope (MDA-MB-231 cells [4]; 24 h CTG, MDA-MB-231, Hill fit): 0.3445
- Min Asymptote (MDA-MB-231 cells [4]; 24 h CTG): 0.5659
- Min Asymptote (MDA-MB-231 cells [4]; 72 h CTG): 0.06356 and 0.2911
- DoR CTG (MDA-MB-231 cells [4]; MDA-MB-231 cell line, depth of response, CellTiter-Glo): 1.0
